In the first test the test system is GUMC-403. Description: viability at highest tested concentration (max response) relative to DMSO (% of DMSO control); higher = less cytotoxic. Particulars: library / dose series: MIPE library, 11-point 1:3 dilution; top concentration 23 µM; 48 h. In a few lines: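 Viability at the highest tested concentration is given relative to vehicle control. For this, conditionally reprogrammed patient-derived GUMC-403 papilloma cells at 700/well in 1536-well plates were exposed to 23 nL of pinned compound for 48 h. Luminescence from CellTiter-Glo was read on a ViewLux and scaled between empty wells (0%) and vehicle wells (100%).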
In the case of `C[C@H]1CN(C[C@@H](C)N1)C2=C(F)C3=C(C(=C2F)N)C(=O)\C(=C/N3C4CC4)C(O)=O`, the viability was determined as 133.
The molecule `O=C1NC(=O)/C(=C/c2ccc3nccnc3c2)S1` yielded a viability of 49.8.
Molecule `Cc1ccc([S+](=O)([O-])Nc2nc3ccccc3nc2Nc2ccc3nsnc3c2)cc1` displayed a viability of 66.3.

The test is the same for the next values; noted with them: library / dose series: MIPE library, 11-point 1:3 dilution; top concentration 34.6 µM; 48 h.
With `Nc1ncnc2c1ncn2[C@@H]1O[C@@H](CO)[C@H](O)[C@@H]1O`, the viability came to 118.

Still in this test, the particulars now being: library / dose series: MIPE library, 11-point 1:3 dilution; top concentration 46.1 µM; 48 h.
The molecule `COc1cc2c(Nc3ccc(NC(=O)c4ccccc4)cc3)ncnc2cc1OCCCN1CCOCC1` came in with a viability of 117.
`O=C(O)c1cccc(-c2noc(-c3ccccc3F)n2)c1` yielded a viability of 118.
`C/C(=C\c1csc(C)n1)[C@@H]1C[C@@H]2O[C@@H]2CCC[C@H](C)[C@H](O)[C@@H](C)C(=O)C(C)(C)[C@@H](O)CC(=O)O1`: the viability was determined as 114.
`Cc1cc2c(C(C)C)c(O)c(O)c(C=O)c2c(O)c1-c1c(C)cc2c(C(C)C)c(O)c(O)c(C=O)c2c1O` had a viability of 77.1.
`COC1=C(N2CCNC(C)C2)C(=CC3=C1N(\C=C(C(O)=O)/C3=O)C4CC4)F` (stereo unspecified) yielded a viability of 120.
Regarding `CCCN[S+](=O)([O-])Nc1ncnc(OCCOc2ncc(Br)cn2)c1-c1ccc(Br)cc1`, the viability was found to be 122.
Still for that read-out and setting: in the case of `CC[N+](CC)(CC)CCOc1cccc(OCC[N+](CC)(CC)CC)c1OCC[N+](CC)(CC)CC` it was 97.6; in that of `O=C(/C=C/c1cccnc1)NCCCCC1CCN(C(=O)c2ccccc2)CC1`, 128; in that of `CN(CC#C)C/C1=C/C2=CC=CC=C2OC3=CC=CC=C13`, 81.4.
Turning to `CCCCC(C=O)NC(=O)C(CC(C)C)NC(=O)OCc1ccccc1` (stereo unspecified), the viability came to 82.
Regarding `COc1cc(OC)c(OC)cc1C=O`, the viability was found to be 107.
For the molecule `CNC(=O)c1ccc2c(c1)NC(=O)/C2=C(\Nc1cccc(CN(C)C)c1)c1ccccc1`, the viability came to 107.
`CC(C)[C@H](O)C(=O)N[C@@H](C)C(=O)N[C@@H]1C(=O)N(C)CCc2ccccc21` yielded a viability of 84.6.
Molecule `OC[C@H]1O[C@H](C[C@@H]1O)N2/C=C(C(=O)NC2=O)/C(F)(F)F` gave a viability of 103.
Take `N[S+]([O-])(=O)C1=CC=C(NC/2=C/C(=O)C3=CC=CC=C3C2=O)C=C1`: the viability stood at 142.
The same measure, in the same setting: in the case of `COc1c(C)c2c(c(O)c1C/C=C(\C)CCC(=O)O)C(=O)OC2` it was 106; in that of `Cc1ccc2c(=O)c3cccc(CC(=O)O)c3oc2c1C`, 6.71.
On to `NC1(c2ccc(-c3nc4ccn5c(=O)[nH]nc5c4cc3-c3ccccc3)cc2)CCC1`, for which the viability was 90.4.
Turning to `CCC1(C)CC(=O)NC1=O` (stereo unspecified), the viability stood at 94.5.
As for `CC(=O)Oc1ccccc1C(=O)O`, the viability stood at 118.
`CO[C@H]1/C=C/O[C@@]2(C)Oc3c(C)c(O)c4c(c3C2=O)C2=NC3(CCN(CC(C)C)CC3)NC2=C(NC(=O)/C(C)=C\C=C\[C@H](C)[C@H](O)[C@@H](C)[C@@H](O)[C@@H](C)[C@H](OC(C)=O)[C@@H]1C)C4=O` showed a viability of 118.
Same read-out and setting: the result for `c1ccc2c(CCNc3ccc(Nc4ccncc4)cc3)c[nH]c2c1` reads 108.
`CCCN1CCO[C@@H]2c3cc(O)ccc3OC[C@H]21` gave a viability of 102.
Molecule `NC(=O)c1noc([C@H](CCCC2CCCCC2)CC(=O)NO)n1` yielded a viability of 118.
`CCOc1cc(N)c(Cl)cc1C(=O)NCC1CN(Cc2ccc(F)cc2)CCO1` (stereo unspecified) registered a viability of 85.7.
Regarding `COC(=O)[C@H](c1ccccc1Cl)N1CCc2sccc2C1`, the viability turned out to be 124.
Turning to `CC(C)(C)/[N+]([O-])=C/c1ccc([S+](=O)([O-])[O][Na])cc1[S+](=O)([O-])[O][Na]`, the viability was 84.5.
`CC[C@H](C)C(=O)O[C@H]1C[C@@H](C)\C=C2\C=C/[C@H](C)[C@H](CC[C@@H]3C[C@@H](O)CC(=O)O3)[C@@H]12` displayed a viability of 61.5.
Molecule `Cc1cccc(-c2nn(C(=S)Nc3ccccc3)cc2-c2ccnc3ccccc23)n1` had a viability of 135.
`C[C@H]1COC/2=C1/C(=O)C(=O)C3=C4CCCC(C)(C)C4=CC=C23` showed a viability of 137.
Still for that read-out and setting: the result for `C[C@@H]1C(=O)OC2[C@H](O)[C@]34[C@H]5C[C@@H](C(C)(C)C)[C@]36[C@@H](OC(=O)[C@@H]6O)O[C@@]4(C(=O)O5)[C@]21O` (stereo partly specified) reads 108.
For the molecule `ClC1=CC=C2N/C3=N/C(=O)CN3CC2=C1Cl`, the viability is 94.9.
`Cc1cccc(CN2CCN(C(c3ccccc3)c3ccc(Cl)cc3)CC2)c1` (stereo unspecified): the viability is 87.2.
Molecule `C[C@@H]1C[C@H]2[C@@H]3\C=C(C)/C4=C/C5=C(C[C@]4(C)[C@H]3[C@@H](O)C[C@]2(C)[C@@]1(O)C(=O)CO)C=N[N]5C6=CC=CC=C6` returned a viability of 125.
Regarding `NCCCCCC(=O)O`, the viability is 130.
Same read-out and setting: the result for `CCOC(=O)\C1=C(/C)N\C2=C(C1C3=CC=C(C=C3)C4=CC=CC=C4)\C(=O)CC(C)(C)C2` (stereo unspecified) reads 82.6; that for `COc1ccc(N(C(=O)Oc2c(C)cccc2C)c2ccnc(Nc3ccc(N4CCN(C)CC4)cc3)n2)c(OC)c1`, 83.2.
The molecule `CC1(C)SCCN([S+](=O)([O-])c2ccc(OCC#CCO)cc2)[C@H]1C(=O)NO` yielded a viability of 103.
With `Nc1ccc(C(=O)Nc2cccc(-c3nc(N4CCOCC4)c4oc5ncccc5c4n3)c2)cn1`, the viability amounted to 101.
For the molecule `O=NN(CCCl)C(=O)NC1CCCCC1`, the viability was 124.
Still for that read-out and setting: in the case of `CNC(=O)c1ccc(-c2cnc3ncc(Cc4ccc5ncccc5c4)n3n2)cc1F` it was 103; in that of `C[N]1C=C(C2=C1C=CC=C2)\C3=C(\C(=O)NC3=O)C4=C5CC(CN)CC[N]5C6=C4C=CC=C6` (stereo unspecified), 42.9.
In turn, `N#C[C@@H]1C[C@@H]2C[C@@H]2N1C(=O)[C@@H](N)C12CC3CC(CC(O)(C3)C1)C2` displayed a viability of 111.
For the molecule `Clc1ccc(-c2nc3sccn3c2/C=N/OCc2ccc(Cl)c(Cl)c2)cc1`, the viability turned out to be 85.8.
Take `CC(N[C@H]1CCCC[C@@H]1NC(=O)c1ccc(Cl)cc1)c1cccc2ccccc12` (stereo partly specified): the viability was 91.2.
Regarding `COc1cc2c(Oc3ccc(NC(=O)C4(C(=O)Nc5ccc(F)cc5)CC4)cc3F)ccnc2cc1OCCCN1CCOCC1`, the viability came out at 23.1.
`Cn1c(CCCC(=O)O)nc2cc(N(CCCl)CCCl)ccc21` registered a viability of 124.
Same read-out and setting: in the case of `Cc1c(Cn2c(C)nc3c(C(=O)O)cc(N4CCOCC4)cc32)cccc1C(F)(F)F` it was 76.9.
`COC(=O)Nc1nc2ccc([S+]([O-])c3ccccc3)cc2[nH]1` (stereo unspecified) returned a viability of 95.4.
The same measure, in the same setting: the result for `CN(C)CC(C)(C)CNc1nn2c(-c3ccccc3)nnc2cc1C1CCC1` reads 108; that for `C=CC(=O)Nc1cccc(Sc2nc(Nc3ccc(N4CCN(C)CC4)cc3)ncc2Cl)c1`, 70.3.
Molecule `COc1cc2c(cc1OC)C1CC(=O)C(CC(C)C)CN1CC2` (stereo unspecified) registered a viability of 110.
In the case of `C[C@@H](NCc1cc2ccccc2[nH]1)c1cccc2ccccc12`, the viability came to 108.
Take `CN[C@H]1CCC2=CC(=C(OC)C(=C2C/3=C/C=C(OC)\C(=O)/C=C13)OC)OC`: the viability was determined as 100.
On the same count and under the same terms, the result for `Cc1ncc([N+](=O)[O-])n1CCO` reads 106.
Take `Cc1cccc(C#Cc2ccccc2)n1`: the viability amounted to 101.
On to `CC1=CC/2=C(C=C1C)N(C[C@@H](O)[C@@H](O)[C@@H](O)CO)C/3=N/C(=O)NC(=O)C3=N2`, for which the viability stood at 123.
On the same count and under the same terms, in the case of `OC(=O)C(CC/1=C/C(=O)NC2=CC=CC=C12)NC(=O)C3=CC=C(Cl)C=C3` (stereo unspecified) it was 132; in that of `CCN1C[C@]2(OC(=O)c3ccccc3NC(C)=O)CC[C@H](OC)[C@@]34[C@@H]2C[C@@H]([C@@H]13)[C@@]1(O)C[C@H](OC)[C@H]2C[C@@H]4[C@]1(O)[C@H]2OC`, 139; in that of `Clc1ccc(C(Cn2ccnc2)OCc2ccc(Sc3ccccc3)cc2)c(Cl)c1` (stereo unspecified), 118.
Take `C[C@@H]\1CC(=O)N\N=C1C2=CC=C(NN=C(C#N)C#N)C=C2`: the viability turned out to be 92.1.
In the case of `CCN1\C=C(C(O)=O)/C(=O)C2=C1C(=C(N3CCNC(C)C3)C(=C2)F)F` (stereo unspecified), the viability was found to be 126.
Molecule `O=P1(N(CCCl)CCCl)NCCCO1` (stereo unspecified) registered a viability of 116.
Still for that read-out and setting: the result for `CN1C(=O)C[C@H](C(=O)N[C@@H](Cc2cnc[nH]2)C(=O)N2CCC[C@H]2C(N)=O)NC1=O` reads 103.
In turn, `CN(CCOc1ccc(CC2SC(=O)NC2=O)cc1)c1ccccn1` (stereo unspecified) returned a viability of 118.
`CCCc1nc2c(C)cc(-c3nc4ccccc4n3C)cc2n1Cc1ccc(-c2ccccc2C(=O)O)cc1` showed a viability of 118.
On the same count and under the same terms, in the case of `S=P(N1CC1)(N1CC1)N1CC1` it was 115; in that of `Nc1ncnc2c1ncn2[C@@H]1O[C@H](CO)C[C@H]1O`, 97.3; in that of `CN(C)Cc1ccc(-c2nc3cccc4c3n2CCNC4=O)cc1`, 88.8.
In turn, `COc1cc2nc(N3CCCN(C)CC3)nc(NC3CCN(Cc4ccccc4)CC3)c2cc1OC` gave a viability of 13.6.

The same test, now with this note: library / dose series: MIPE library, 11-point 1:3 dilution; top concentration 92.2 µM; 48 h.
Molecule `C[Se]CCC(N)C(=O)O` (stereo unspecified) yielded a viability of 98.
`CC(C)(C)c1[nH]cnc1/C=c1\[nH]c(=O)/c(=C/c2ccccc2)[nH]c1=O` registered a viability of 95.3.
